From the NIST ThermoML archive (doi:10.1021/je100100n)

Experiment: xn = mol fraction of the nth substance listed
Conditions: 101 kPa, Liquid

CCCCO [butan-1-ol] + CCOC(=O)CC(=O)OCC
x2 = 0
Conditions | mass density [kg/m3]
288.15 K | 813.77
298.15 K | 806.137
313.15 K | 794.488
328.15 K | 782.477

CCOC(=O)CC(=O)OCC [diethyl 1,3-propanedioate] + CCO
mass density [kg/m3]
Conditions | 288.15 K | 298.15 K | 313.15 K | 328.15 K
x1 = 0.05 | 826.264 | 817.293 | 803.619 | 789.558
x1 = 0.0999 | 853.923 | 844.646 | 830.505 | 815.983
x1 = 0.1001 | 854.013 | 844.731 | 830.589 | 816.063
x1 = 0.15 | 878.005 | 868.468 | 853.941 | 839.005
x1 = 0.2001 | 899.1 | 889.366 | 874.536 | 859.351
x1 = 0.3 | 934.365 | 924.309 | 909.007 | 893.394
x1 = 0.4 | 962.806 | 952.511 | 936.881 | 920.983
x1 = 0.4498 | 974.929 | 964.533 | 948.801 | 932.802
x1 = 0.4999 | 986.037 | 975.577 | 959.71 | 943.637
x1 = 0.5501 | 996.293 | 985.767 | 969.837 | 953.695
x1 = 0.6001 | 1005.6 | 995.034 | 979.034 | 962.847
x1 = 0.6453 | 1013.44 | 1002.82 | 986.788 | 970.577
x1 = 0.6997 | 1022.16 | 1011.52 | 995.442 | 979.211
x1 = 0.7497 | 1029.61 | 1018.93 | 1002.83 | 986.588
x1 = 0.8496 | 1043.02 | 1032.31 | 1016.2 | 999.969
x1 = 0.8995 | 1049.08 | 1038.36 | 1022.25 | 1006.06
x1 = 1 | 1060.33 | 1049.6 | 1033.5 | 1017.34

CCOC(=O)CC(=O)OCC [diethyl 1,3-propanedioate] + CCCCO
mass density [kg/m3]
Conditions | 288.15 K | 298.15 K | 313.15 K | 328.15 K
x1 = 0.1001 | 850.611 | 842.336 | 829.747 | 816.824
x1 = 0.2002 | 883.667 | 874.886 | 861.524 | 847.882
x1 = 0.3001 | 913.38 | 904.169 | 890.202 | 875.956
x1 = 0.35 | 927.207 | 917.818 | 903.569 | 889.092
x1 = 0.4 | 940.225 | 930.667 | 916.189 | 901.465
x1 = 0.45 | 952.775 | 943.06 | 928.349 | 913.434
x1 = 0.5 | 964.641 | 954.786 | 939.89 | 924.793
x1 = 0.5501 | 976.114 | 966.141 | 951.051 | 935.788
x1 = 0.5999 | 986.952 | 976.853 | 961.602 | 946.182
x1 = 0.7 | 1007.44 | 997.139 | 981.612 | 965.954
x1 = 0.7998 | 1026.31 | 1015.86 | 1000.1 | 984.244
x1 = 0.9001 | 1043.95 | 1033.35 | 1017.41 | 1001.38
x1 = 1 | 1060.33 | 1049.6 | 1033.5 | 1017.34

CCOC(=O)CC(=O)OCC [diethyl 1,3-propanedioate] + CC(C)O
mass density [kg/m3]
Conditions | 288.15 K | 298.15 K | 313.15 K | 328.15 K
x1 = 0.1001 | 836.917 | 827.809 | 813.707 | 798.938
x1 = 0.2 | 877.015 | 867.404 | 852.617 | 837.294
x1 = 0.3 | 911.283 | 901.308 | 886.063 | 870.365
x1 = 0.3501 | 926.715 | 916.6 | 901.155 | 885.344
x1 = 0.4 | 940.924 | 930.696 | 915.119 | 899.194
x1 = 0.455 | 955.561 | 945.23 | 929.523 | 913.507
x1 = 0.4999 | 966.784 | 956.373 | 940.573 | 924.508
x1 = 0.5501 | 978.638 | 968.162 | 952.282 | 936.171
x1 = 0.5999 | 989.637 | 979.111 | 963.18 | 947.033
x1 = 0.6499 | 1000.13 | 989.567 | 973.566 | 957.417
x1 = 0.7001 | 1010.03 | 999.417 | 983.39 | 967.228
x1 = 0.8 | 1028.36 | 1017.69 | 1001.63 | 985.453
x1 = 0.8995 | 1044.94 | 1034.26 | 1018.18 | 1002.01
x1 = 1 | 1060.33 | 1049.6 | 1033.5 | 1017.34

CCO [ethanol] + CCOC(=O)CC(=O)OCC
x2 = 0
Conditions | mass density [kg/m3]
288.15 K | 794.044
298.15 K | 785.489
313.15 K | 772.42
328.15 K | 758.958
